Key:
[1] = test system: ACHN; assay: NCI-60 SRB screening (one-dose and five-dose); type: cell-based, human; conditions: 48 h; for Growth Percent: 10 μM
In short: (§1)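 Spectrophotometric SRB end point; 48-h drug exposure; percent of untreated-control growth reported.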

[2] = test system: CAKI-1; assay: NCI-60 SRB screening (one-dose and five-dose); type: cell-based, human; conditions: 48 h; for Growth Percent: CAKI-1, 10 μM
In short: (§2)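 Growth inhibition is scored with sulforhodamine B after 48 h of continuous compound exposure. An MG_MID averages each parameter over the whole cell panel, insensitive lines being counted at the top tested concentration.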

[3] = test system: COLO 205; assay: NCI-60 SRB screening (one-dose and five-dose); type: cell-based, human; conditions: 48 h; for Growth Percent: COLO 205, 10 μM
In short: as §1

[4] = test system: EKVX; assay: NCI-60 SRB screening (one-dose and five-dose); type: cell-based, human; conditions: 48 h; for Growth Percent: 10 μM
In short: as §1

[5] = test system: HCT-116; assay: NCI-60 SRB screening (one-dose and five-dose); type: cell-based, human; conditions: 48 h; for Growth Percent: HCT-116, 10 μM
In short: as §1

[6] = test system: HCT-15; assay: NCI-60 SRB screening (one-dose and five-dose); type: cell-based, human; conditions: 48 h; for Growth Percent: HCT-15, 10 μM
In short: as §1

[7] = test system: HT29; assay: NCI-60 SRB screening (one-dose and five-dose); type: cell-based, human; conditions: 48 h; for Growth Percent: HT29, 10 μM
In short: as §2

[8] = test system: IGROV1; assay: NCI-60 SRB screening (one-dose and five-dose); type: cell-based, human; conditions: 48 h; for Growth Percent: IGROV1, 10 μM
In short: as §2

[9] = test system: K-562; assay: NCI-60 SRB screening (one-dose and five-dose); type: cell-based, human; conditions: 48 h; for Growth Percent: K-562, 10 μM
In short: (§3)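 Cells received compound at one concentration for 48 h. Growth was read by sulforhodamine B protein staining, as percentage versus untreated controls. Mean graph midpoints averaged each parameter over all cell lines, with insensitive lines entered at the highest tested concentration.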

[10] = test system: KM-12; assay: NCI-60 SRB screening (one-dose and five-dose); type: cell-based, human; conditions: 48 h; for Growth Percent: KM-12, 10 μM
In short: as §1

[11] = test system: MDA-MB-435; assay: NCI-60 SRB screening (one-dose and five-dose); type: cell-based, human; conditions: 48 h; for Growth Percent: MDA-MB-435, 10 μM
In short: as §1

[12] = test system: MDA-MB-468; assay: NCI-60 SRB screening (one-dose and five-dose); type: cell-based, human; conditions: 48 h; for Growth Percent: MDA-MB-468, 10 μM
In short: as §1

[13] = test system: NCI-H460; assay: NCI-60 SRB screening (one-dose and five-dose); type: cell-based, human; conditions: 48 h; for Growth Percent: NCI-H460, 10 μM
In short: as §1

[14] = test system: OVCAR-8; assay: NCI-60 SRB screening (one-dose and five-dose); type: cell-based, human; conditions: 48 h; for Growth Percent: OVCAR-8, 10 μM
In short: as §2

[15] = test system: SF-268; assay: NCI-60 SRB screening (one-dose and five-dose); type: cell-based, human; conditions: 48 h; for Growth Percent: SF-268, 10 μM
In short: as §3

[16] = test system: SF-539; assay: NCI-60 SRB screening (one-dose and five-dose); type: cell-based, human; conditions: 48 h; for Growth Percent: SF-539, 10 μM
In short: as §1

[17] = test system: SK-MEL-2; assay: NCI-60 SRB screening (one-dose and five-dose); type: cell-based, human; conditions: 48 h; for Growth Percent: SK-MEL-2, 10 μM
In short: as §2

[18] = test system: SK-OV-3; assay: NCI-60 SRB screening (one-dose and five-dose); type: cell-based, human; conditions: 48 h; for Growth Percent: SK-OV-3, 10 μM
In short: as §1

[19] = test system: SR; assay: NCI-60 SRB screening (one-dose and five-dose); type: cell-based, human; conditions: 48 h; for Growth Percent: 10 μM
In short: as §3

[20] = test system: U251; assay: NCI-60 SRB screening (one-dose and five-dose); type: cell-based, human; conditions: 48 h; for Growth Percent: U251, 10 μM
In short: as §3

[21] = test system: NCI-60 cancer cell line panel; assay: NCI-60 cancer cell line panel screening (whole panel / subpanels); type: cell-based; conditions: single dose 10 µM
Method: At first, compounds were tested in a single high dose concentration regimen (10 µM) against a panel of sixty various cancer cell lines; the results of the screening are outlined in Table 1 in the form of percent growth (GP %) of treated cells versus untreated cells used as control, where negative numbers indicate cell kill. The experimental results of growth inhibition may range from 0 to 100 and indicate a cytostatic effect while negative values indicate cell death and thus a cytotoxic activity (for NCI data see Supplementary Material Figures S6–S12).
The selectivity index (SI) was calculated by dividing the full panel MG_MID60 (μM) of tested compounds by their individual subpanel MG_MID of the cell line (μM); it correlates directly to the selectivity of their anticancer activity (Table 3). […] By contrast, despite its strong antiproliferative effect, compound 7 acts with low selectivity against the various human tumor cell lines, the highest SI value being 1.73.
Compounds 1, 2, and 4–8 were tested at one dose assay (10^−5 M) toward a panel of approximately sixty cancer cell lines representing different cancer types: leukemia, melanoma, lung, colon, CNS, ovarian, renal, prostate, and breast cancers. Primary anticancer assays were performed according to the NCI protocol as described elsewhere (see, e.g., http://dtp.nci.nih.gov accessed on 16 October 2019). The compounds were added at a single concentration and the cell cultures were incubated for 48 h. The end point determinations were made with a protein binding dye, sulforhodamine B (SRB). The results for each compound are reported as the percent growth (GP %) of treated cells compared to untreated control cells (negative numbers indicate cell kill). Compounds with considerable activity against all tested human tumor cell lines (6 and 7) were selected for the advanced assay against a panel of approximately sixty tumor cell lines at 10-fold dilutions of five concentrations (100 µM, 10 µM, 1 µM, 0.1 µM, and 0.01 µM). The percentage of growth was evaluated spectrophotometrically versus controls not treated with test agents after 48-h exposure and using SRB protein assay to estimate cell viability or growth. Three antitumor activity dose–response parameters were calculated for each cell line: GI50—molar concentration of the compound that inhibits 50% net cell growth; TGI—molar concentration of the compound leading to the total inhibition; and LC50—molar concentration of the compound leading to 50% net cell death (presented in negative logarithm). Furthermore, mean graph midpoints (MG_MID) were calculated for each of the parameters, giving an average activity parameter over all cell lines for the tested compound. For the MG_MID calculation, insensitive cell lines were included with the highest concentration tested.

[22] = Homo sapiens, five dose 0.01–100 μM

CC(=O)O[C@H]1CC[C@]2(C)[C@H]3CC[C@@H]4[C@H]5[C@H](C)[C@@]6(C)OC[C@]5(CC[C@@]4(C)[C@]3(C)CC[C@H]2C1(C)C)CC6C(C)=O (stereo partly shown) [Compound 1]
Growth Percent [1]: 86.11%
Growth Percent [2]: 74.02%
Growth Percent [3]: 71.47%
Growth Percent [4]: 91.35%
Growth Percent [5]: 41.92%
Growth Percent [6]: 38.30%
Growth Percent [7]: 80.13%
Growth Percent [8]: 51.77%
Growth Percent [9]: 39.40%
Growth Percent [10]: 78.19%
Growth Percent [11]: 83.22%
Growth Percent [12]: 57.26%
Growth Percent [13]: 84.90%
Growth Percent [14]: 92.52%
Growth Percent [15]: 97.23%
Growth Percent [16]: 82.82%
Growth Percent [17]: 92.21%
Growth Percent [18]: 98.97%
Growth Percent [19]: 62.46%
Growth Percent [20]: 77.27%
Antiproliferative / cytotoxic activity in words [21]: completely lacks activity

CC(=O)[C@H]1C[C@]23CC[C@]4(C)[C@H](CC[C@@H]5[C@@]6(C)CCC(=O)C(C)(C)[C@@H]6CC[C@]54C)[C@H]2[C@H](C)[C@@]1(C)OC3 [Compound 2, 3-oxo-21β-acetyl-20β,28-epoxy-18α,19βH-ursane]
Growth Percent [1]: 99.80%
Growth Percent [2]: 66.38%
Growth Percent [3]: 111.81%
Growth Percent [4]: 71.73%
Growth Percent [5]: 100.51%
Growth Percent [6]: 111.38%
Growth Percent [7]: 108.96%
Growth Percent [8]: 88.93%
Growth Percent [9]: 103.93%
Growth Percent [10]: 102.54%
Growth Percent [11]: 100.67%
Growth Percent [12]: 108.53%
Growth Percent [13]: 94.87%
Growth Percent [14]: 104.68%
Growth Percent [15]: 90.95%
Growth Percent [16]: 95.15%
Growth Percent [17]: 105.22%
Growth Percent [18]: 118.18%
Growth Percent [19]: 92.32%
Growth Percent [20]: 107.36%

C[C@H]1[C@@H]2[C@H]3CC[C@@H]4[C@@]5(C)CC[C@H](O)C(C)(C)[C@@H]5CC[C@@]4(C)[C@]3(C)CC[C@]23CO[C@@]1(C)C(C(=O)/C=C/c1cccnc1)C3 (stereo partly shown) [Compound 4]
Growth Percent [1]: 41.58%
Growth Percent [2]: 55.59%
Growth Percent [3]: 56.27%
Growth Percent [4]: 101.00%
Growth Percent [5]: 14.40%
Growth Percent [6]: 38.53%
Growth Percent [7]: 99.49%
Growth Percent [8]: 80.59%
Growth Percent [9]: 17.96%
Growth Percent [10]: 54.39%
Growth Percent [11]: 34.50%
Growth Percent [12]: 20.53%
Growth Percent [13]: 40.71%
Growth Percent [14]: 35.05%
Growth Percent [15]: 81.93%
Growth Percent [16]: 77.76%
Growth Percent [17]: 87.32%
Growth Percent [18]: 77.76%
Growth Percent [20]: 58.63%

C[C@H]1[C@@H]2[C@H]3CC[C@@H]4[C@@]5(C)CC[C@H](O)C(C)(C)[C@@H]5CC[C@@]4(C)[C@]3(C)CC[C@]23CO[C@@]1(C)[C@@H](C(=O)/C=C/c1ccco1)C3 [Compound 5, 3β-Hydroxy-21-[3-(2E-furyl)-prop-2-en-1-one]-20β,28-epoxy-18α,19βH-ursane]
Growth Percent [1]: 44.33%
Growth Percent [2]: 55.81%
Growth Percent [3]: −2.30%
Growth Percent [4]: 104.96%
Growth Percent [5]: 100.13%
Growth Percent [6]: 105.61%
Growth Percent [7]: 98.06%
Growth Percent [8]: 107.89%
Growth Percent [10]: 99.96%
Growth Percent [11]: 17.83%
Growth Percent [12]: 19.35%
Growth Percent [13]: 109.09%
Growth Percent [14]: 99.33%
Growth Percent [15]: 96.31%
Growth Percent [16]: 99.66%
Growth Percent [17]: 9.51%
Growth Percent [18]: 102.58%
Growth Percent [20]: 69.38%

COC(=O)[C@]12CC[C@@H](C(C)=O)[C@@H]1[C@H]1CC[C@@H]3[C@@]4(C)C/C(=C\c5cccnc5)C(=O)C(C)(C)[C@@H]4CC[C@@]3(C)[C@]1(C)CC2 [Compound 8, Methyl 3,20-dioxo-2-(3-pyridinylidene)-29-nor-lup-28-oate]
Growth Percent [1]: 32.49%
Growth Percent [2]: 51.03%
Growth Percent [3]: 82.53%
Growth Percent [4]: 85.77%
Growth Percent [5]: 3.92%
Growth Percent [6]: 23.22%
Growth Percent [7]: 16.53%
Growth Percent [8]: 85.80%
Growth Percent [9]: 18.29%
Growth Percent [10]: 60.52%
Growth Percent [11]: 72.63%
Growth Percent [12]: 55.75%
Growth Percent [13]: 70.90%
Growth Percent [14]: 38.71%
Growth Percent [15]: 68.63%
Growth Percent [16]: 81.03%
Growth Percent [17]: 68.06%
Growth Percent [18]: 93.73%
Growth Percent [19]: 12.35%
Growth Percent [20]: 56.61%

COc1cccc2c1C(=O)c1c(O)c3c(c(O)c1C2=O)C[C@@](O)(C(=O)CO)C[C@@H]3O[C@H]1C[C@H](N)[C@H](O)[C@H](C)O1 [Doxorubicin, reference compound]
GI50 [1, 22]: 80 nM
GI50 ([2]; Homo sapiens, CAKI-1, five dose 0.01–100 μM): 950 nM
GI50 ([3]; Homo sapiens, COLO 205, five dose 0.01–100 μM): 180 nM
GI50 [4, 22]: 410 nM
GI50 ([5]; Homo sapiens, HCT-116, five dose 0.01–100 μM): 80 nM
GI50 ([6]; Homo sapiens, HCT-15, five dose 0.01–100 μM): 6460 nM
GI50 ([7]; Homo sapiens, HT-29, HT29, five dose 0.01–100 μM): 120 nM
GI50 ([8]; Homo sapiens, IGROV-1, IGROV1, five dose 0.01–100 μM): 170 nM
GI50 ([9]; Homo sapiens, K562, K-562, five dose 0.01–100 μM): 190 nM
GI50 ([10]; Homo sapiens, KM12, KM-12, five dose 0.01–100 μM): 270 nM
GI50 ([11]; Homo sapiens, MDA-MB-435, MDA-B-435, five dose 0.01–100 μM): 250 nM
GI50 ([12]; Homo sapiens, MDA-MB-468, five dose 0.01–100 μM): 50 nM
GI50 ([13]; Homo sapiens, NCI-H460, five dose 0.01–100 μM): 20 nM
GI50 ([14]; Homo sapiens, OVCAR-8, five dose 0.01–100 μM): 100 nM
GI50 ([15]; Homo sapiens, SF-268, five dose 0.01–100 μM): 100 nM
GI50 ([16]; Homo sapiens, SF-539, five dose 0.01–100 μM): 120 nM
GI50 ([17]; Homo sapiens, SK-MEL-2, five dose 0.01–100 μM): 170 nM
GI50 ([18]; Homo sapiens, SK-OV-3, five dose 0.01–100 μM): 220 nM
GI50 [19, 22]: 30 nM
GI50 ([20]; Homo sapiens, U-251, U251, five dose 0.01–100 μM): 40 nM

Reference: paper PMC8509773, “3-Pyridinylidene Derivatives of Chemically Modified Lupane and Ursane Triterpenes as Promising Anticancer Agents by Targeting Apoptosis” (International Journal of Molecular Sciences, 2021)
